Experimental data: patent US11708346B2, “Treatment and prevention of neuropathic pain with P2Y14 antagonists” (Saint Louis University, priority 2019, dated 2023)
Entries after “also recorded” stand apart in the source; their conditions may differ.

Experiments:
[1] = target: T1, hP2Y14R (Homo sapiens, UniProt Q15391); test: Competitive fluorescent binding assay in whole CHO-hP2Y14R cells, tracer 20, flow cytometry; conditions: read-out: Human P2Y14R binding affinity (IC50)
T1 construct: expressed in transfected cells; host or cells: CHO
T1 sequence (Q15391 1-338): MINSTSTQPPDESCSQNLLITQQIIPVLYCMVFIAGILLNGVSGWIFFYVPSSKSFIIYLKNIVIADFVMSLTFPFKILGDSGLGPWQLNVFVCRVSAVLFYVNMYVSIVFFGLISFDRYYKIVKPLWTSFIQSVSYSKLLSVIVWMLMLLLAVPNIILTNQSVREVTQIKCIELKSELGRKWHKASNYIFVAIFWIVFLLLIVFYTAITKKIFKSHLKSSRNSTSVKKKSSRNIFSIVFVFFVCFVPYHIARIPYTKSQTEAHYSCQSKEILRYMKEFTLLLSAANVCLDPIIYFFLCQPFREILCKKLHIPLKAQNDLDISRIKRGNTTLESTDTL

[2] = target: DOR (Homo sapiens, UniProt P41143); test: PDSP off-target binding
[3] = target: T2, α2C (Homo sapiens, UniProt P18825); test: PDSP off-target binding; conditions: ± SEM
T2 sequence (P18825 1-462): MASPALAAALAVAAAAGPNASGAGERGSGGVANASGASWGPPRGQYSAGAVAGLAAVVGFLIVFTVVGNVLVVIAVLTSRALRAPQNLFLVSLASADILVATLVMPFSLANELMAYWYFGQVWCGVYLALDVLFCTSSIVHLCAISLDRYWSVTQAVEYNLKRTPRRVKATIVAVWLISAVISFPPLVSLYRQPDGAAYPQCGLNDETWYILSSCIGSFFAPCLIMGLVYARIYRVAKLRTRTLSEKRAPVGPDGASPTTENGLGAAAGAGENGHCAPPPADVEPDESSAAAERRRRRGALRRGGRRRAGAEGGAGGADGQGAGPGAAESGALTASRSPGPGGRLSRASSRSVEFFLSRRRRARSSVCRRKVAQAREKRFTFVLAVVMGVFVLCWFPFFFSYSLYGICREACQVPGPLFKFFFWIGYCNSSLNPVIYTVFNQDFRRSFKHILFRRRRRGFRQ

[4] = target: T3, α2A (Homo sapiens, UniProt P08913); test: PDSP off-target binding
T3 sequence (P08913 1-465): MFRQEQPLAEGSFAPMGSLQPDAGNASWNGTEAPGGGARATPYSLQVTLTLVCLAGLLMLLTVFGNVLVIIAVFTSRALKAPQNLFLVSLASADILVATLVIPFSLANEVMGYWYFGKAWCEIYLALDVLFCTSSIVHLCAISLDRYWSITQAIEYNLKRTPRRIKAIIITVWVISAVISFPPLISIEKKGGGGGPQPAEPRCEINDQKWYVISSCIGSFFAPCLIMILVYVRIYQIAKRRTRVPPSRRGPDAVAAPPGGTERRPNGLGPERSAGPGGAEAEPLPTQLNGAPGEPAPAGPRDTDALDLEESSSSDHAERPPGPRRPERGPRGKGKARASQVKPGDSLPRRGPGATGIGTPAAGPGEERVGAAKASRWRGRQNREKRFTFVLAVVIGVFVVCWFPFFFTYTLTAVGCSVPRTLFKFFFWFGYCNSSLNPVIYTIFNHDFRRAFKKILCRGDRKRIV

[5] = target: T4, α2B (Homo sapiens, UniProt P18089); test: PDSP off-target binding
T4 sequence (P18089 1-450): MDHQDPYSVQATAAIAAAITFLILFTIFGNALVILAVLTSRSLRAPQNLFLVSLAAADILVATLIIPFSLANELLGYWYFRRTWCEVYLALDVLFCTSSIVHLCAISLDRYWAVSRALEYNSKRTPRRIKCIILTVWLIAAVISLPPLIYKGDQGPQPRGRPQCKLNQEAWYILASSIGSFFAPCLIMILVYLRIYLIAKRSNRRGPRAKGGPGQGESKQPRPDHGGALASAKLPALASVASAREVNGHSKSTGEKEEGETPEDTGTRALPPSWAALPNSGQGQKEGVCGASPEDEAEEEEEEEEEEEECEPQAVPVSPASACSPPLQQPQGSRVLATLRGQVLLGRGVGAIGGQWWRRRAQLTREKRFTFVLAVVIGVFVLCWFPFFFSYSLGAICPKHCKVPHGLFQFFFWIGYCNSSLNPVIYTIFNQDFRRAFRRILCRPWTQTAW

[6] = tested on: CCI-induced mechano-allodynia; test: Chronic constriction injury (CCI) of the sciatic nerve, mechano-allodynia by von Frey filaments; format: in vivo, mouse
Method: Chronic constriction injury (CCI) to the sciatic nerve was performed using the Bennett model. […] Then the animals were placed on a sterile surgical field and the skin was wiped with topical antiseptic, Dermachlor solution (0.2% chlorhexidine gluconate). […] A small incision was created on the lateral side of the left hind limb parallel to the femur. The sciatic nerve was exposed and ligated on two sites about 1 mm apart above the trifurcation using silk sutures 6.0. The incision was closed with clips and lidocaine cream was applied.
Mice were acclimated to the testing mesh-rack for 30 min before behavioral measurements. All behavioral testing was performed in the morning. The baseline measurements were determined on day 0 before CCI procedure. On day 7 post-CCI, baseline behavior responses were assessed, beginning prior to drug administration. Following drug injection, the behaviors were evaluated at multiple time points. Mechano-allodynia was quantified according to the hind paw withdrawal response to von Frey filaments stimulation by the Dixon up-and-down method. […] In presence of a positive withdrawal response a lighter filament was applied. If a negative response occurred, a stronger filament was used. At least four readings are obtained after the first positive response and the pattern of response was converted to a 50% paw withdrawal threshold (PWT), using the method described by Chaplan et al., J. Neurosci.
Data are expressed as mean±SD and analyzed by two-tailed, two-way repeated measures ANOVA with Dunnett's post hoc comparisons to day 7 behavior. The percentage of reversal of peak CCI-induced pain afforded by each drug was calculated for each animal using their baseline and day 7 post CCI behavioral measures. % Reversal=(PWT(g)t−PWT(g)day7)/PWT(g)day0−PWT(g)day7)×100, where PWT(g)=paw withdrawal threshold, t=time after drug. […] All statistical analyses were performed using GraphPad Prism 8 (Graph Pad Inc., San Diego, Calif.). Significance was accepted at p<0.05.

[7] = target: T5, mP2Y14R (Mus musculus, UniProt Q9ESG6)
T5 sequence (Q9ESG6 1-338): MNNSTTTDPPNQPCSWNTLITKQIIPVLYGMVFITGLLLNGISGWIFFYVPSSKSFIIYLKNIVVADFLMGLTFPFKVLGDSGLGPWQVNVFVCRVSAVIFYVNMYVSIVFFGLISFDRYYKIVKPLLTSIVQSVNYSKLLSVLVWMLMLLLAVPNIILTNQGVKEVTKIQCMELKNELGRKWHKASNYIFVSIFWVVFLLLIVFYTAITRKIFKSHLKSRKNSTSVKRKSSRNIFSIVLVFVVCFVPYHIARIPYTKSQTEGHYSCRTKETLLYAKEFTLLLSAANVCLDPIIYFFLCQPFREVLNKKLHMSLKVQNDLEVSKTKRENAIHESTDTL

[8] = target: 5HT1D (Homo sapiens, UniProt P28221); test: PDSP off-target binding; conditions: ± SEM
[9] = target: 5HT1E (Homo sapiens, UniProt P28566); test: PDSP off-target binding; conditions: ± SEM
[10] = target: β3 (Homo sapiens, UniProt P13945); test: PDSP off-target binding; conditions: ± SEM
[11] = target: TSPO (Rattus norvegicus, UniProt P16257); test: PDSP off-target binding; conditions: ± SEM
[12] = 10 μmol/kg, i.p., day 7 post-CCI, n = 3

Sequence of 5HT1D (P28221 whole entry, species assumed): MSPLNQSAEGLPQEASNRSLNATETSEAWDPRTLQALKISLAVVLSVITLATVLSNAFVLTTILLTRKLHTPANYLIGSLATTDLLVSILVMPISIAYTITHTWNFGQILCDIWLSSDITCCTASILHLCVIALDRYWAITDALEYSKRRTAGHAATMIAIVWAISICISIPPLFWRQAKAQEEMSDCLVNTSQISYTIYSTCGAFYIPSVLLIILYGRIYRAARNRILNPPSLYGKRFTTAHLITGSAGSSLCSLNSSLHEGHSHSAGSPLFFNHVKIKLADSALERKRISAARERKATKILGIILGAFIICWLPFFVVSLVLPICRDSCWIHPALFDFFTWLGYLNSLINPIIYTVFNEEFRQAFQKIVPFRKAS
Sequence of TSPO (P16257 whole entry): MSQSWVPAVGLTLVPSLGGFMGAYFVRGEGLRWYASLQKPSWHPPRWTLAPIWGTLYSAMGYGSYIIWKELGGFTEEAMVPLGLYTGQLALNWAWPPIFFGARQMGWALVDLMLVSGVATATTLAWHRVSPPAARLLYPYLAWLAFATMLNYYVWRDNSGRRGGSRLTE
Sequence of β3 (P13945 whole entry): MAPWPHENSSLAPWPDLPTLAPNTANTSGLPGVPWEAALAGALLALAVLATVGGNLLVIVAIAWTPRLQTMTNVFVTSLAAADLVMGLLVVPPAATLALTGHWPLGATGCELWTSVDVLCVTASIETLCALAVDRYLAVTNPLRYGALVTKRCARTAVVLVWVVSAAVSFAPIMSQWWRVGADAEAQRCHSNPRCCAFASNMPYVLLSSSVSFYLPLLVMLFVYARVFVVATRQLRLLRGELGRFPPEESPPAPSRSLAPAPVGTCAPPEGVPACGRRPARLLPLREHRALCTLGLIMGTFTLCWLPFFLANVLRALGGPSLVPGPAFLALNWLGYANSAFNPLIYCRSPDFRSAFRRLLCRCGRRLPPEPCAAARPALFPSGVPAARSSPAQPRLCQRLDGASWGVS
Sequence of 5HT1E (P28566 whole entry, species assumed): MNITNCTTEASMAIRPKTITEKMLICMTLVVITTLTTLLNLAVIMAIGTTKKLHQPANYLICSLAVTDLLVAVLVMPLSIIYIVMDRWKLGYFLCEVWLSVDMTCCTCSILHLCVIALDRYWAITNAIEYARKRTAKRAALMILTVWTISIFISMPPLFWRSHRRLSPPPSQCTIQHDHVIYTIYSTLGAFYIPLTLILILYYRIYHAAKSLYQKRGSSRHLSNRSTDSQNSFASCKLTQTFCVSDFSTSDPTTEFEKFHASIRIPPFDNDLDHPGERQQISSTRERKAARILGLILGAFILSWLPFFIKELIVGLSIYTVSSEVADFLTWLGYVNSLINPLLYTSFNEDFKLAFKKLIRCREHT
Sequence of DOR (P41143 whole entry): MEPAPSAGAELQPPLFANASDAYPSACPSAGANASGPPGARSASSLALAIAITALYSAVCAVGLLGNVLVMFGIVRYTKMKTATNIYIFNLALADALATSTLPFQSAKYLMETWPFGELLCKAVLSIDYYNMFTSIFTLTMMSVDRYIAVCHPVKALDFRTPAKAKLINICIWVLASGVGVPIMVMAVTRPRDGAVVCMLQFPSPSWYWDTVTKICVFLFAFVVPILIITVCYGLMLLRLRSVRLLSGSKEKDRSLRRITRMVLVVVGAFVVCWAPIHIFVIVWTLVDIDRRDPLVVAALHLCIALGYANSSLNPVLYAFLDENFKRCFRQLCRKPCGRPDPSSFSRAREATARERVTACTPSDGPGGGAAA

Row | Structure (SMILES) | IC50 [1] [nM] | Ki [2] [nM] | Ki [3] [nM] | Ki [4] [nM] | Ki [5] [nM] | In vivo efficacy compared with a comparator compound ([6]; 10 μmol/kg i.p., 6 vs 7, 4 vs 1) | Effect at 0.5 h (% ± SD), percent inhibition of mechano-allodynia [6, 12] [%] | Effect at 1 h (% + SD), percent inhibition of mechano-allodynia [6, 12] [%] | Effect at 2 h (% ± SD), percent inhibition of mechano-allodynia [6, 12] [%] | Effect at 3 h (% ± SD), percent inhibition of mechano-allodynia [6, 12] [%] | Effect at 5 h (% ± SD), percent inhibition of mechano-allodynia [6, 12] [%] | Reversal of CCI-induced mechano-allodynia ([6]; 10 μmol/kg, i.p., ipsilateral hind paw, day 7 post-CCI) | mP2Y14R affinity compared to isomer 6 ([7]; 7 vs 6) | IC50 ([7]; read-out: Mouse P2Y14R binding affinity (IC50), mP2Y14R in HEK293 cells, tracer 20) [nM] | Ki [8] [nM] | Ki [9] [nM] | Ki [10] [nM] | Ki [11] [nM]
1 | O=C(O)c1cc(-c2ccc(C3CCNCC3)cc2)cc(-c2cn(-c3ccc(C(F)(F)F)cc3)nn2)c1 [Compound 7, 4′-(Piperidin-4-yl)-5-(1-(4-(trifluormethyl)phenyl)-1H-1,2,3-triazol-4-yl)-[1,1′-biphenyl]-3-carboxylic acid] | 664 ± 175 | 3790 | 2710 | 959 | 5330 | no statistical difference; also recorded: similar | 70.7 ± 16.5 | 86.8 ± 2.4 | 71.4 ± 10.2 | 55.1 ± 18.6 | 6.7 ± 5.9 | reversed the allodynia | nearly equipotent | 246 ± 63 | – | – | – | –
2 | CC(=O)N1CCC(c2ccc(-c3cc(C(=O)O)cc4cc(-c5ccc(C(F)(F)F)cc5)ccc34)cc2)CC1 [Compound 4, 4-(4-(1-(Acetyl)piperidin-4-yl)phenyl)-7-(4-(trifluoromethyl)phenyl)-2-naphthoic acid] | – | – | – | – | – | – | – | – | – | – | – | – | – | – | 1750 | 3910 | 860 | 508
